Experimental data published in patent publication US9133220B2, “Boron-containing 5-arylidene-3,5-dihydro-4H-imidazol-4-ones” (Evrogen Joint Stock Company, priority 2012, dated 2015).
Where “and” joins values, the source holds several entries; their conditions need not be identical. Equal entries are not always repeated.

Assays:
[1] = Measuring spectral characteristics (absorption and emission maxima, extinction coefficients); format: physicochemical; details: excitation at 488 nm, detection at 500-540 nm
[2] = as above; format: physicochemical
Procedure: (§1) To measure spectral characteristics of some compounds with the formula I weighted portions of compounds p-NH2-BDI-BF2, p-dimethylamino-BDI-BF2, p-diethylamino-BDI-BF2, p-HOBDI-BF2, di-F-p-HOBDI-BF2, p-diethylamino-BDI-dimethylaminoethenyl-BF2 and p-HOBDI-dimethylaminoethenyl-BF2 were dissolved in water, ethanol and acetonitrile. Absorption spectra were measured on Varian Cary 100 Bio spectrophotometer, fluorescence spectra were measured on Varian Cary Eclipse scanning spectrofluorometer.
The values of absorption and emission maxima and molar extinction coefficients for examples of compounds with the formula I in the indicated solvents are listed in a Table 2. Emission peaks of the investigated compounds settle into a rather wide range from 485 nm for p-HOBDI-BF2 to 598 nm for p-diethylamino-BDI-dimethylamino-ethenyl-BF2.

[3] = Quantum yield of fluorescence; format: physicochemical
Procedure: as §1
The compounds p-NH2-BDI-BF2, p-HOBDI-BF2 (anionic form), di-Fp-HOBDI-BF2 (anionic form), p-diethylamino-BDI-dimethylaminoethenyl-BF2, p-HOBDI-dimethylaminoethenyl-BF2 (anionic form) have rather high quantum yields of fluorescence in water solutions.

[4] = tested on: cell membranes of HeLa Kyoto and HEK293 cell lines; assay: Staining of cell membranes and comparison of photostability with EGFP; format: cell-based, human
Procedure: Human cell cultures HeLa and HEK293 were grown in standart conditions and analyzed by wide field fluorescent and confocal laser scanning microscopy (excitation at 488 nm, detection at 500-540 nm).
The cell staining of the cells, temporarily expressing chimer protein EGFP-XRCC (nuclear localization), was carried out by p-diethylamino-BDI-BF2 in concentration 5 μM to compare fluorescent properties of the compound p-diethylamino-BDI-BF2 to the green fluorescent protein EGFP.

- difference in the brightness of fluorescence in water and organic phases [1]: more than 10 times
- shift of emission and absorption spectra with change of more polar solvent (water) to less polar (ethanol, acetonitrile) [2]: hypsochromic shift
- Abs. peak ([2]; acetonitrile): 493 nm
- Emis. peak ([2]; acetonitrile): 553 nm
- ext. coef. ([2]; acetonitrile): 54000 M⁻¹ cm⁻¹
- Abs. peak ([2]; ethanol): 506 nm
- Emis. peak ([2]; ethanol): 558 nm
- ext. coef. ([2]; ethanol): 59000 M⁻¹ cm⁻¹
- Abs. peak ([2]; water): 518 nm and 514 nm
- Emis. peak ([2]; water): 562 nm
- ext. coef. ([2]; water): 54000 M⁻¹ cm⁻¹
- Quantum yield of fluorescence ([3]; acetonitrile): 0.34
- Quantum yield of fluorescence ([3]; ethanol): 0.22
- Quantum yield of fluorescence ([3]; in organic solvents): 0.2-0.35
- Quantum yield of fluorescence ([3]; water): 0.05
SMILES: CCN(CC)c1ccc(/C=C2\N=C(C)N(C)C2=O)c(B(F)F)c1 [p-diethylamino-BDI-BF2, (Z)-4-(4-(diethylamino)-2-(difluoroboryl)benzylidene)-1,2-dimethyl-1H-imidazole-5(4H)-one]
- accumulation in cell membranes [4]: accumulated in cell membranes
- fluorescence after addition to the cell medium ([4]; 1-5 μM, excitation 488 nm, detection 500-540 nm): bright yellow-green fluorescence was detected, associated with intracellular membrane structues and lipid drops
